Measured values as given in US20120052099A1, “PHARMACEUTICAL COMPOSITION CONTAINING ARBIDOL IN THE FORM OF PHOSPHOLIPID NANOPARTICLES” (priority 2009, published 2012).
“Also recorded” adds a separate entry of the source. Structures can show the parent of a compound that is named as a salt.

How the values were obtained:
[1] = used internally; cited from earlier work
[2] = cited from earlier work
whole blood = assay: Hemolysis on addition to whole blood in vitro; type: cell-based; details: 50 μl of 5 mg/ml Arbidol added to 950 μl whole blood, 37° C., 20 minutes
[3] = Bioaccessibility (pharmacokinetics) after peroral administration in rats; type: in vivo; parameters: area (chromatogram peak), blood: unit not given here; details: 25 mg/kg
Method: 1. The content of an NF Arbidol flask was dissolved in 5 ml. (A) 2. An Arbidol solution was prepared at a concentration of 5 mg/ml (suspension in water). (B) 3. Feed was withdrawn from the animals, leaving them water only, 24 hours before the experiment, and the animals were weighed on the day of the experiment. 4. 1 ml of solution A and B was administered perorally to the rats. 5. Blood was collected at intervals of 5, 10, 15, 30, and 45 minutes into eppendorfs containing EDTA. After an eppendorf was filled, it was shaken intensively. 6. Blood treatment: 900 μl of methanol was added to 100 μl of blood and agitated intensively for 3 to 5 minutes. The mixture was centrifuged to cause sedimentation of proteins. It was then analyzed by high-performance liquid chromatography for presence of Arbidol in the samples.
The dose administered was 25 mg/kg.

[4] = 10 minutes after administration
[5] = 15 minutes after administration
[6] = 30 minutes after administration

## CCOC(=O)c1c(CSc2ccccc2)n(C)c2cc(Br)c(O)c(CN(C)C)c12 [Arbidol, ethyl ester of 6-bromo-5-hydroxy-1-methyl-4-dimethylaminomethyl-2-phenylthiomethylindole-3-carbonic acid hydrochloride monohydrate]
[1]
  T1/2: approximately 17 hours
[2]; ethanol
  solubility in ethanol: dissolved only slightly in ethanol
[2]; water, hydrochloride monohydrate
  solubility in water: practically insoluble in water; also recorded: not soluble in water; also recorded: not dissolved in water
Whole blood
  Hemolysis if added to whole blood: causes hemolysis
[3]; 5 minutes after administration
  area (chromatogram peak), blood: 0/0
  concentration in blood: 0/0 μg/ml
[3]; [4]
  area (chromatogram peak), blood: 1.2
  concentration in blood: 0.3 µg/mL
[3]; [5]
  area (chromatogram peak), blood: 7.69
  concentration in blood: 2.4 µg/mL
[3]; [6]
  area (chromatogram peak), blood: 1.6
  concentration in blood: 0.4 µg/mL
